In patent US6864219B2, “Substituted aryl ketones” (Bayer Aktiengesellschaft, priority 2000, dated 2005):

System: weeds
Experiment: Pre-emergence test (Example A), activity against weeds
Assay type: in vivo
Settings: soil sprayed 24 hours after sowing; damage rated after three weeks
Procedure: (§1) To produce a suitable preparation of active compound, 1 part by weight of active compound is mixed with the stated amount of solvent, the stated amount of emulsifier is added and the concentrate is diluted with water to the desired concentration.
Seeds of the test plants are sown in normal soil. After 24 hours, the soil is sprayed with the preparation of active compound such that the particular amount of active compound desired is applied per unit area. The concentration of active compound in the spray liquor is chosen such that the particular amount of active compound desired is applied in 1000 liters of water per hectare.
After three weeks, the degree of damage to the plants is rated in % damage in comparison to the development of the untreated control. The figures denote: • 0%=no effect (like untreated control) • 100%=total destruction

Structure (SMILES)	activity against weeds, pre-emergence
CCn1ncc(C(=O)c2ccc(S(C)(=O)=O)c(OCCn3nc(C)n(C)c3=O)c2C)c1O [Example 1, 4-{3-[2-(3′,4′-dimethyl-1′,2′,4′-1H-triazolin-5′-on-1′-yl)-ethyloxy]-2-methyl-4-methylsulphonyl-benzoyl}-1-ethyl-5-hydroxy-1H-pyrazole]	strong activity

System: not listed separately
Experiment: log P determination by HPLC on reversed-phase column (C 18), EEC Directive 79/831 V.A8
Assay type: physicochemical
Settings: labelled a): acidic range, 0.1% aqueous phosphoric acid/acetonitrile gradient, 43° C.
Procedure: The log P values given in Table 1 were determined in accordance with EEC Directive 79/831 V.A8 by HPLC (High Performance Liquid Chromatography) on a reversed-phase column (C 18). Temperature: 43° C.
(a) Mobile phases for the determination in the acidic range: 0.1% aqueous phosphoric acid, acetonitrile; linear gradient of 10% acetonitrile to 90% acetonitrile—the corresponding data in Table 1 are labelled ^a).
(b) Mobile phases for the determination in the neutral range: 0.01 molar aqueous phosphate buffer solution, acetonitrile, linear gradient from 10% acetonitrile to 90% acetonitrile—the corresponding data in Table 1 are labelled ^b).

Structure (SMILES)	logP (Physical data, Table 1)
CCn1ncc(C(=O)c2ccc(Cl)c(OCCn3nc(C)n(C)c3=O)c2C)c1OCc1ccc(Br)cc1 [Example 12]	logP = 2.07^a)
CSc1nn(COc2c(Cl)ccc(C(=O)C3=C(O)CCCC3=O)c2Cl)c(=O)n1C [Example 13]	logP = 2.44^a)
CCn1ncc(C(=O)c2ccc(SC)c(OCCn3nc(C)n(C)c3=O)c2Cl)c1OCc1ccc(Br)cc1 [Example 14]	logP = 2.05^a)
CCn1ncc(C(=O)c2ccc(Cl)c(OCCn3nc(OC)n(C)c3=O)c2Cl)c1O [Example 15]	logP = 1.69^a)
CCn1ncc(C(=O)c2ccc(Cl)c(OCCn3nc(SC)n(C)c3=O)c2Cl)c1O [Example 16]	logP = 1.92^a)
CCn1ncc(C(=O)c2ccc(Cl)c(OCCn3nc(OC)n(CC)c3=O)c2Cl)c1O [Example 17]	logP = 1.93^a)
CCn1ncc(C(=O)c2ccc(Cl)c(OCCn3nc(COC)n(C)c3=O)c2Cl)c1O [Example 18]	logP = 1.62^a)
COCc1nn(CCOc2c(Cl)ccc(C(=O)C3=C(O)CCCC3=O)c2Cl)c(=O)n1C [Example 19]	logP = 2.06^a)
CCn1ncc(C(=O)c2ccc(SC)c(OC[C@@H]3CCC(=O)N3)c2Cl)c1O [Example 20]	(S enantiomer) logP = 1.60^a)
CSc1nn(CCOc2c(Cl)ccc(C(=O)C3=C(O)CCCC3=O)c2Cl)c(=O)n1C [Example 21]	logP = 2.39^a)
CCn1c(OC)nn(CCOc2c(Cl)ccc(C(=O)C3=C(O)CCCC3=O)c2Cl)c1=O [Example 22]	logP = 2.16^a)
CSc1ccc(C(=O)C2=C(O)CCCC2=O)c(Cl)c1OC[C@@H]1CCC(=O)N1 [Example 24]	(S enantiomer) logP = 1.98^a)
CCn1ncc(C(=O)c2ccc(Cl)c(OCCn3nc(OC)n(CC)c3=O)c2C)c1O [Example 25]	logP = 1.88^a)
CCn1c(OC)nn(CCOc2c(Cl)ccc(C(=O)C3=C(O)CCCC3=O)c2C)c1=O [Example 26]	logP = 2.15^a)
CCn1ncc(C(=O)c2ccc(Cl)c(OCCn3nc(SC)n(C)c3=O)c2C)c1O [Example 27]	logP = 2.11^a)
CSc1nn(CCOc2c(Cl)ccc(C(=O)C3=C(O)CCCC3=O)c2C)c(=O)n1C [Example 28]	logP = 2.38^a)
CCn1ncc(C(=O)c2ccc(Cl)c(OCCn3nc(OC)n(CC)c3=O)c2C)c1O [Example 29]	logP = 2.12^a)
CCn1ncc(C(=O)c2ccc(Cl)c(OCCn3nc(COC)n(C)c3=O)c2C)c1O [Example 30]	logP = 1.78^a)

Structure (SMILES)	logP (Physical data, Table 1)
CCn1c(OC)nn(CCOc2c(Cl)ccc(C(=O)C3=C(O)CCCC3=O)c2C)c1=O [Example 31]	logP = 2.38^a)
COCc1nn(CCOc2c(Cl)ccc(C(=O)C3=C(O)CCCC3=O)c2C)c(=O)n1C [Example 32]	logP = 2.04^a)
CCn1ncc(C(=O)c2ccc(SC)c(OCCn3nc(SC)n(C)c3=O)c2Cl)c1O [Example 33]	logP = 1.97^a)
CSc1ccc(C(=O)C2=C(O)CCCC2=O)c(Cl)c1OCCn1nc(SC)n(C)c1=O [Example 34]	logP = 2.36^a)
CCn1ncc(C(=O)c2ccc(Cl)c(OC[C@@H]3CCC(=O)N3)c2C)c1O [Example 35]	(S enantiomer) [α]D^20 = +2.3 logP = 1.67^a)
Cc1c(C(=O)C2=C(O)CCCC2=O)ccc(Cl)c1OC[C@@H]1CCC(=O)N1 [Example 36]	(S enantiomer) logP = 1.94^a)
CCn1ncc(C(=O)c2ccc(Cl)c(OC[C@@H]3CCC(=O)N3C)c2C)c1O [Example 37]	(S enantiomer) logP = 1.85^a)
Cc1c(C(=O)C2=C(O)CCCC2=O)ccc(Cl)c1OC[C@@H]1CCC(=O)N1C [Example 38]	(S enantiomer) logP = 2.10^a)
CN1C(=O)CC[C@H]1COc1c(Cl)ccc(C(=O)C2=C(O)CCCC2=O)c1Cl [Example 39]	(S enantiomer) logP = 2.12^a)
CCn1ncc(C(=O)c2ccc(Cl)c(OC[C@@H]3CCC(=O)N3C)c2Cl)c1O [Example 40]	(S enantiomer) logP = 1.67^a)
COCc1nn(CCOc2c(SC)ccc(C(=O)C3=C(O)CCCC3=O)c2Cl)c(=O)n1C [Example 44]	logP = 2.05^a)
CCn1ncc(C(=O)c2ccc(SC)c(OC[C@@H]3CCC(=O)N3C)c2Cl)c1O [Example 45]	(S enantiomer) logP = 1.68^a)
CSc1ccc(C(=O)C2=C(O)CCCC2=O)c(Cl)c1OC[C@@H]1CCC(=O)N1C [Example 46]	(S enantiomer) logP = 2.13^a)
O=C1CC[C@@H](COc2c(Cl)ccc(C(=O)C3=C(O)CCCC3=O)c2Cl)N1 [Example 47]	(S enantiomer) logP = 1.95^a)
CCn1ncc(C(=O)c2ccc(Cl)c(OC[C@@H]3CCC(=O)N3)c2Cl)c1O [Example 48]	(S enantiomer) logP = 1.51^a)
CCn1ncc(C(=O)c2ccc(Br)c(OC[C@@H]3CCC(=O)N3)c2Br)c1O [Example 60]	(S enantiomer) logP = 1.56^a)
O=C1CC[C@@H](COc2c(Br)ccc(C(=O)C3=C(O)CCCC3=O)c2Br)N1 [Example 61]	(S enantiomer) logP = 2.02^a)

Same assay, conditions: reversed-phase HPLC column (C 18), labelled a): acidic range; read-out: logP)

Structure (SMILES)	chromatographic logP
CCOC(=O)c1ccc(Cl)c(OCCn2nc(SC)n(C)c2=O)c1Cl [II-35, ethyl 2,4-dichloro-3-[2-(3-methylthio-4-methyl-5-oxo-1,2,4-triazolin-1-yl)-ethoxy]-benzoate]	2.66
CCOC(=O)c1ccc(Cl)c(OC[C@@H]2CCC(=O)N2)c1Cl [II-61, ethyl (S)-2,4-dichloro-3-[(2-oxo-pyrrolidin-5-yl)-methoxy]-benzoate]	2.14
CCOC(=O)c1ccc(Cl)c(OCCBr)c1Cl [ethyl 2,4-dichloro-3-(2-bromo-ethoxy)-benzoate]	3.98

Same assay, conditions: reversed-phase HPLC column (C 18), labelled a): acidic range; starting materials of formula (II)/(IIA); read-out: logP (Physical data, Table 2)

Structure (SMILES)	chromatographic logP
CCOC(=O)c1ccc(Cl)c(OCCn2nc(SC)n(C)c2=O)c1Cl [II-35, ethyl 2,4-dichloro-3-[2-(3-methylthio-4-methyl-5-oxo-1,2,4-triazolin-1-yl)-ethoxy]-benzoate]	2.66
CCOC(=O)c1ccc(Cl)c(OC[C@@H]2CCC(=O)N2)c1Cl [II-61, ethyl (S)-2,4-dichloro-3-[(2-oxo-pyrrolidin-5-yl)-methoxy]-benzoate]	2.15

Same assay, conditions: reversed-phase HPLC column (C 18), mobile-phase label not given; read-out: Log P (preparation examples)

Structure (SMILES)	chromatographic logP
CCn1ncc(C(=O)c2ccc(S(C)(=O)=O)c(OCCn3nc(C)n(C)c3=O)c2C)c1O [Example 1, 4-{3-[2-(3′,4′-dimethyl-1′,2′,4′-1H-triazolin-5′-on-1′-yl)-ethyloxy]-2-methyl-4-methylsulphonyl-benzoyl}-1-ethyl-5-hydroxy-1H-pyrazole]	1.23
COC(=O)c1ccc(Cl)c(OCCn2nc(C)n(C)c2=O)c1C [II-1, methyl 4-chloro-3-[2-(3′,4′-dimethyl-1′,2′,4′-1H-triazolin-5′-on-1′-yl)-ethoxy]-2-methyl-benzoate]	1.94
COC(=O)c1ccc(SC)c(OCCn2nc(C)n(C)c2=O)c1C [II-2, methyl 3-[2-(3′,4′-dimethyl-1′,2′,4′-1H-triazolin-5′-on-1′-yl)-ethoxy]-2-methyl-4-methylthio-benzoate]	1.89
CCOC(=O)c1ccc(S(C)(=O)=O)c(OCCn2nc(C)n(C)c2=O)c1C [II-3, ethyl 3-[2-(3′,4′-dimethyl-1′,2′,4′-1H-triazolin-5′-on-1′-yl)-ethoxy]-2-methyl-4-methylsulphonyl-benzoate]	1.76
Cc1c(C(=O)O)ccc(Cl)c1OCCn1nc(C)n(C)c1=O [II-4, 4-chloro-3-[2-(3′,4′-dimethyl-1′,2′,4′-1H-triazolin-5′-on-1′-yl)-ethoxy]-2-methyl-benzoic acid]	1.37
Cc1nn(CCOc2c(Cl)ccc(C(=O)Cl)c2Cl)c(=O)n1C [II-5, 2,4-dichloro-3-[2-(3′,4′-dimethyl-1′,2′,4′-1H-triazolin-5′-on-1′-yl)-ethoxy]-2-benzoyl chloride]	1.24
CCOC(=O)c1ccc(Cl)c(OCn2nc(OCC)n(C)c2=O)c1Cl [II-6, ethyl 3-(3′-ethoxy-4′-methyl-1′,2′,4′-1H-triazolin-5′-on-1′-yl)-methoxy-2,4-dichloro-benzoate]	2.77
CCOc1nn(COc2c(Cl)ccc(C(=O)O)c2Cl)c(=O)n1C [II-8, 3-(3′-ethoxy-4′-methyl-1′,2′,4′-1H-triazolin-5′-on-1′-yl)-methoxy-2,4-dichloro-benzoic acid]	1.74
COC(=O)c1ccc(Cl)c(OCCCl)c1C [methyl 4-chloro-3-(2-chloro-ethoxy)-2-methyl-benzoate]	3.52
COC(=O)c1ccc(Cl)c(O)c1C [methyl 4-chloro-3-hydroxy-2-methyl-benzoate]	2.14

System: weeds
Experiment: Post-emergence test (Example B), activity against weeds
Assay type: in vivo
Settings: test plants 5-15 cm sprayed; damage rated after three weeks
Procedure: as §1
Test plants with a height of 5-15 cm are sprayed with the preparation of active compound such that the particular amounts of active compound desired are applied per unit area. The concentration of the spray liquor is chosen so that the particular amounts of active compound desired are applied in 1000 l of water/ha.
After three weeks, the degree of damage to the plants is rated in % damage in comparison to the development of the untreated control.
The figures denote: • 0%=no effect (like untreated control) • 100%=total destruction

Structure (SMILES)	activity against weeds, post-emergence
CCn1ncc(C(=O)c2ccc(S(C)(=O)=O)c(OCCn3nc(C)n(C)c3=O)c2C)c1O [Example 1, 4-{3-[2-(3′,4′-dimethyl-1′,2′,4′-1H-triazolin-5′-on-1′-yl)-ethyloxy]-2-methyl-4-methylsulphonyl-benzoyl}-1-ethyl-5-hydroxy-1H-pyrazole]	strong activity
CSc1nn(COc2c(Cl)ccc(C(=O)C3=C(O)CCCC3=O)c2Cl)c(=O)n1C [Example 13]	strong activity
